Experiments:
β-galactosidase [1] = biological target: T1, β-galactosidase (Escherichia coli, UniProt P00722); assay: Labeling of lacZ positive fibroblast cells with a β-galactosidase substrate; type: cell-based
T1 construct: host or cells: CRE BAG 2 cells (NIH/3T3 cells transformed with a retrovirus containing lacZ)
Description: (§1) 1.1 Cell Lines: NIH/3T3 cells (lacZ negative) and CRE BAG 2 cells (3T3 cells transformed with a retrovirus containing the lacZ gene) are employed for cellular assays. Both cell lines can be obtained from American Type Culture Collection Co., Rockville, Md. The cells are grown in a humidified atmosphere of 5% CO2 in Dulbecco's modified Eagle's medium supplemented with 10% calf serum, 50 μg/mL gentamicin, 300 μg/mL L-glutamine and 10 mM HEPES pH 7.4.
1.2 Stock Solution of the Labeling Reagent: The β-galactosidase substrate 1h is dissolved in DMSO to get a 10 mM stock solution.
(§2) 1.3 Working Medium: 100 μL of the dye stock solution is added to 10 mL of fresh culture medium to prepare a "working medium" containing 100 μM of the substrate 1h. This medium is then filter-sterilized by passing through an Acrodisc™ filter (0.45μ pore size).
1.4 Staining and Examination of Cells: Cells grown on coverslips are transferred to the working medium and incubated at 37° C. under normal culture conditions. Cells are examined at the desired time for their fluorescence under a Zeiss microscope equipped with a Hoechst filter set (typically excitation at about 360 nm and emission past 480 nm). […] After 6 hours, the fluorescence intensity of stained CRE BAG 2 cells reaches its highest level.

[2] = system: NIH/3T3 cells and CRE BAG 2 cells; assay: Cytotoxicity and cellular retention in fibroblast cells; type: cell-based
Description: as §1, §2

β-galactosidase [3] = assay: Labeling of lacZ positive yeast cells; type: cell-based, Yeast strain EG 123; conditions: 200 μM staining solution mixed with equal volume of cells, after 300 μM chloroquine
Description: 2.1 Yeast Strain: Yeast strain EG 123 is transformed with plasmid pLGΔ-312S, which carries the yeast CYC1 promotor region and initiation codon fused in frame with the lacZ gene. The cells are grown in a synthetic medium selecting for plasmid maintenance to a density of about 10^7 cells per mL. Cells are collected by centrifugation and resuspended in Z buffer to obtain a cell suspension. Z buffer contains 0.2% β-mercaptoethanol which improves the permeability of both the yeast cell wall and the plasma membrane. Nontransformed yeast cells are used as the control.
2.2 Staining Solution: The galactosidase substrate (1h) is first dissolved in DMSO to get 10 mM stock solution. This solution is diluted 1:50 with distilled water to obtain a 200 μM staining solution.
2.3 Staining and Examination of Cells: To inhibit endogenous vacuolar galactosidase activity, yeast cells are first preincubated with 300 μM chloroquine for 20 minutes at room temperature, then mixed with an equal volume of the substrate-containing staining solution. Most of the lacZ positive cells become fluorescent within 15 minutes. A crystalline precipitate can be observed in the cells, while the lacZ negative cells remain unstained for at least 2 hours.

[4] = system: epidermal growth factor (EGF) receptors; assay: Detection of a growth factor receptor in A431 cells; type: cell-based, human; conditions: fluorescence microscope; substrate 0.1 mM 15 minutes, or 50 ng/mL direct conjugate
Description: 1 ). Cells. Dish-cultured A431 cells (American Type Culture Collection, Rockville, Md.) are digested with trypsin and transferred to glass cover-slips. The cells are subcultured and stabilized for 24 to 48 hours before use.
2). Staining. The slips are transferred into a staining dish, washed with PBS, rinsed in a 0.5% formaldehyde PBS solution for 15 minutes at room temperature, washed with PBS, then incubated in 50 ng/mL biotinylated epidermal growth factor (biotin-EGF; Molecular Probes, Inc., Eugene, Oreg.) in PBS solution for 30 minutes at room temperature. The slips are washed with PBS buffer, then incubated with 1 μg/mL streptavidin alkaline phosphatase (Molecular Probes, Inc.) in a reaction buffer (0.1M TRIS pH 7.8 containing 0.15M NaCl, 50 mM MgCl2 and 0.1 mM ZnCl2) for 30 minutes at room temperature. The slips are washed with the reaction buffer, then incubated with 0.1 mM of a precipitating alkaline phosphatase substrate in the reaction buffer for 15 minutes at room temperature. The substrate solution is filtered through a 0.2 μM filter (Millipore, Bedford, Mass.) before use.
3). Detection. The slips are washed with PBS then examined under a Zeiss fluorescence microscope equipped with suitable filters (typically excitation at about 360 nm and emission past 480 nm). […] Alternatively the fluorescent labeled cells can be detected and the intensity quantitated by flow cytometry.

T1 sequence (P00722 whole entry): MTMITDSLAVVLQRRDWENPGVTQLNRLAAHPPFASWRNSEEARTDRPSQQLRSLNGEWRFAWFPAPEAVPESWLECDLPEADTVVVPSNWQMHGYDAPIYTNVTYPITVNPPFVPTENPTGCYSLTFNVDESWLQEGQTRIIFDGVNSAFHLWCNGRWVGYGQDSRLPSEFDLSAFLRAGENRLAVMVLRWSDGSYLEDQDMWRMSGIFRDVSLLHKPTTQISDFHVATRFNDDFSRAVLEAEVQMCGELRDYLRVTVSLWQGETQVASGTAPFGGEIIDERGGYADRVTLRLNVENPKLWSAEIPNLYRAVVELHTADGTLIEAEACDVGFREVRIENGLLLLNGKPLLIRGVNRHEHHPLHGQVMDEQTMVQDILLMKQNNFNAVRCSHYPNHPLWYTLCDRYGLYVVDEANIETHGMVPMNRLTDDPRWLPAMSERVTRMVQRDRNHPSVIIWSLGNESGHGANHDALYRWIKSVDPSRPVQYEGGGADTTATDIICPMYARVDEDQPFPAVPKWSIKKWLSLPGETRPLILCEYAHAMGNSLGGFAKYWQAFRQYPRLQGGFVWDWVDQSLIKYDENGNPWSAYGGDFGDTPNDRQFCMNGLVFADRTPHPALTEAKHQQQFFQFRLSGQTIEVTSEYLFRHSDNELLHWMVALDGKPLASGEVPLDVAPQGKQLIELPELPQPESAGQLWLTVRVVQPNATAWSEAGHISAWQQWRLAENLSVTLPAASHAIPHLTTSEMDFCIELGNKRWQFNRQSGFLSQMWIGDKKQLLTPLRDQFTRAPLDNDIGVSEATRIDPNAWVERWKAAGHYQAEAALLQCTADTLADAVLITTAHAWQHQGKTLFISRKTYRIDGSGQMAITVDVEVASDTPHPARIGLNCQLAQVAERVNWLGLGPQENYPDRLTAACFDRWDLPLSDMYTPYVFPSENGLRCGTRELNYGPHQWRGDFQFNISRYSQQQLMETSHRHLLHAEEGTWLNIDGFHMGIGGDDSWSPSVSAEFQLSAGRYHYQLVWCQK

| Molecule | time at which fluorescence intensity of stained CRE BAG 2 cells reaches its highest level (β-galactosidase [1]; 100 μM working medium) [h] | fluorescent staining of 3T3 cells (lacZ negative) (β-galactosidase [1]; 100 μM, 60 minutes, 37° C.) | fluorescent staining of lacZ positive CRE BAG 2 cells (β-galactosidase [1]; 100 μM, 60 minutes, 37° C.) | cytotoxicity [2] | cell morphology and population doubling time ([2]; 100 μM working medium, 24 hours) | time for which lacZ negative yeast cells remain unstained (β-galactosidase [3]) | time within which most lacZ positive yeast cells become fluorescent (β-galactosidase [3]) [min] | fluorescence of stained fixed A431 cells [4] |
| --- | --- | --- | --- | --- | --- | --- | --- | --- |
| O=c1[nH]c(-c2ccccc2O[C@@H]2O[C@H](CO)[C@H](O)[C@H](O)[C@H]2O)nc2ccccc12 [1h] | 6 | not in the 3T3 cells | fluorescent spots can be observed in the cytoplasmic area | no cytotoxicity | look morphologically normal and have the same population doubling time as the control | at least 2 hours | ≤ 15 |  |
| fluorescein EGF: direct fluorescent conjugate of epidermal growth factor (NSDSECPLSHDGYCLHDGVCMYIEALDKYACNCVVGYIGERCQYRDLKWWELR; Epidermal growth factor fluorescein label; UniProt P01133 971-1023, looked up) |  |  |  |  |  |  |  | extremely low visibility and very low photostability |

— patent US5443986A, “Enzymatic analysis using substrates that yield fluorescent precipitates” (Molecular Probes, Inc., priority 1993, dated 1995)
